The experiment deals with ObgE (Escherichia coli, UniProt P42641). In words: inhibition of single-turnover GTP hydrolysis, TLC of gamma-32P-GTP. It counts as biochemical.
Sequence of ObgE (P42641 whole entry): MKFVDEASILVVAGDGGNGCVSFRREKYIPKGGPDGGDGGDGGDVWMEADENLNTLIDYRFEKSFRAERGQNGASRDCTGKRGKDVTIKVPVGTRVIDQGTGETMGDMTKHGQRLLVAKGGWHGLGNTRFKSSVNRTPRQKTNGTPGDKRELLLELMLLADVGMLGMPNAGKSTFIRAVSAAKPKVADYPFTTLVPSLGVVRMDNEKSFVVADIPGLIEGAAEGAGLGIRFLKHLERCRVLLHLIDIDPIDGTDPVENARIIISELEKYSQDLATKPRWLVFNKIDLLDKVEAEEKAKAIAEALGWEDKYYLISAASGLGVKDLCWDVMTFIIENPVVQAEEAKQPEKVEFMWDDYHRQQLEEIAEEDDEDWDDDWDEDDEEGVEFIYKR

The molecule `Nc1nc2c(ncn2[C@@H]2O[C@H](COP(=O)(O)OP(=O)(O)O)[C@@H](O)[C@H]2O)c(=O)[nH]1` [GDP] gave a Ki of 1600 ± 400 nM.

Values taken from PMC2771346 (Molecular microbiology, 2009).
